Results as given in article PMC2799665.

Assay: End-to-end contact formation (no covalent bond): MR121 oxazine dye fluorescence quenched by C-terminal Trp through van der Waals contact/stacking; ns-resolved FCS; single-exponential fit over 6-300 ns with two-state model
Conditions: the molecule shown is the open-chain precursor; water (aqueous solution); 20.0 °C

SMILES | end-to-end contact formation time constant (ns (closing time constant tau+ = 1/k+))
CCN1CCCc2cc3c(cc21)Oc1cc2c(cc1=N3)CCC[N+]=2CCCC(=O)NCC(=O)N[C@@H](CO)C(=O)NCC(=O)N[C@@H](CO)C(=O)NCC(=O)N[C@@H](CO)C(=O)NCC(=O)N[C@@H](CO)C(=O)NCC(=O)N[C@@H](CO)C(=O)NCC(=O)N[C@@H](CO)C(=O)NCC(=O)N[C@@H](CO)C(=O)NCC(=O)N[C@@H](CO)C(=O)NCC(=O)N[C@@H](CO)C(=O)NCC(=O)N[C@@H](CO)C(=O)NCC(=O)N[C@@H](CO)C(=O)NCC(=O)N[C@@H](CO)C(=O)N[C@@H](Cc1c[nH]c2ccccc12)C(=O)[O-] | 68.4
CCN1CCCc2cc3c(cc21)Oc1cc2c(cc1=N3)CCC[N+]=2CCCC(=O)NCC(=O)N[C@@H](CO)C(=O)NCC(=O)N[C@@H](CO)C(=O)NCC(=O)N[C@@H](CO)C(=O)NCC(=O)N[C@@H](CO)C(=O)NCC(=O)N[C@@H](CO)C(=O)NCC(=O)N[C@@H](CO)C(=O)NCC(=O)N[C@@H](CO)C(=O)N[C@@H](Cc1c[nH]c2ccccc12)C(=O)[O-] | 32.7
CCN1CCCc2cc3c(cc21)Oc1cc2c(cc1=N3)CCC[N+]=2CCCC(=O)NCC(=O)N[C@@H](CO)C(=O)NCC(=O)N[C@@H](CO)C(=O)NCC(=O)N[C@@H](CO)C(=O)N[C@@H](Cc1c[nH]c2ccccc12)C(=O)[O-] [MR121-Gly-Ser-Gly-Ser-Gly-Ser-Trp-O-] | 17.6
CCN1CCCc2cc3c(cc21)Oc1cc2c(cc1=N3)CCC[N+]=2CCCC(=O)NCC(=O)N[C@@H](CO)C(=O)NCC(=O)N[C@@H](CO)C(=O)N[C@@H](Cc1c[nH]c2ccccc12)C(=O)[O-] [MR121-Gly-Ser-Gly-Ser-Trp-O-] | 14.6
CCN1CCCc2cc3c(cc21)Oc1cc2c(cc1=N3)CCC[N+]=2CCCC(=O)NCC(=O)N[C@@H](CO)C(=O)NCC(=O)N[C@@H](CO)C(=O)NCC(=O)N[C@@H](CO)C(=O)NCC(=O)N[C@@H](CO)C(=O)NCC(=O)N[C@@H](CO)C(=O)NCC(=O)N[C@@H](CO)C(=O)NCC(=O)N[C@@H](CO)C(=O)NCC(=O)N[C@@H](CO)C(=O)NCC(=O)N[C@@H](CO)C(=O)NCC(=O)N[C@@H](CO)C(=O)NCC(=O)N[C@@H](CO)C(=O)NCC(=O)N[C@@H](CO)C(=O)NCC(=O)N[C@@H](CO)C(=O)NCC(=O)N[C@@H](CO)C(=O)NCC(=O)N[C@@H](CO)C(=O)N[C@@H](Cc1c[nH]c2ccccc12)C(=O)[O-] | 103
CCN1CCCc2cc3c(cc21)Oc1cc2c(cc1=N3)CCC[N+]=2CCCC(=O)NCC(=O)N[C@@H](CO)C(=O)NCC(=O)N[C@@H](CO)C(=O)NCC(=O)N[C@@H](CO)C(=O)NCC(=O)N[C@@H](CO)C(=O)NCC(=O)N[C@@H](CO)C(=O)N[C@@H](Cc1c[nH]c2ccccc12)C(=O)[O-] [MR121-Gly-Ser-Gly-Ser-Gly-Ser-Gly-Ser-Gly-Ser-Trp-O-] | 20.5
CCN1CCCc2cc3c(cc21)Oc1cc2c(cc1=N3)CCC[N+]=2CCCC(=O)NCC(=O)N[C@@H](CO)C(=O)NCC(=O)N[C@@H](CO)C(=O)NCC(=O)N[C@@H](CO)C(=O)NCC(=O)N[C@@H](CO)C(=O)NCC(=O)N[C@@H](CO)C(=O)NCC(=O)N[C@@H](CO)C(=O)NCC(=O)N[C@@H](CO)C(=O)NCC(=O)N[C@@H](CO)C(=O)NCC(=O)N[C@@H](CO)C(=O)N[C@@H](Cc1c[nH]c2ccccc12)C(=O)[O-] | 48.9
